Legend:
FaDu cells [1] = assay: Comparison of hypoxia selective uptake of ACN and Pimonidazole in vitro; format: cell-based, human
Experimental: FaDu cells were grown on coverslips (as described above) and treated simultaneously with 100 μM ACN and 100 μM Pimonidazole. The cells were subsequently exposed to normoxic (20% Oxygen), hypoxic (1% Oxygen) or anoxic (0% Oxygen) conditions for 6 hours, and fixed in 2% PFA. Standard Pimonidazole IHC was performed as described elsewhere using an Alexafluor 647 labelled secondary antibody. Click chemistry was performed as previously described using an Alexafluor 555 conjugated alkyne followed by nuclear staining with Hoechst. Mounted coverslips on glass slides were imaged as described earlier.

FaDu cells [2] = assay: Retention profile of ACN in hypoxic cells following re-oxygenation; format: cell-based, human; details: 100 μM
Experimental: After bioreductive activation under hypoxia, nitroimidazole reactive species (nitroradical anion) bind to cellular nucleophiles to form drug-protein adducts. To evaluate how fast these adducts are metabolized, we treated FaDu cells with 100 μM of ACN under normoxia or anoxia for 6 hours, and exposed them to subsequent re-oxygenation. Cells were fixed after 0 hr, 1 hr, 3 hr, 6 hr and 18 hr of re-oxygenation. Click chemistry was performed on fixed cells as previously described.

FaDu xenograft tumors = assay: Assessment of ACN as a hypoxia tracer in tumor-bearing mice; format: in vivo, BALB/c nude mice; details: 80 mg/Kg intraperitoneally, 2 hours post-injection
Experimental: Female BALB/c nude mice (Charles River Laboratories) aged 6 weeks were used and cared for according to the CCAC guidelines. We used a biflanked sub-cutaneous tumor model where the tumor in the left flank was untreated (control) and the tumor in the right flank served as the ‘treatment’ group. We subcutaneously injected 6×10^6 FaDu cells in 0.1 ml of sterile 0.9% NaCl into the upper right flank to form palpable tumors. The tumors were measured daily until the volume reached 10 mm3. The mice were divided into 4 groups and injected intraperitoneally in 0.15 ml 0.9% saline with: 1-80 mg/Kg ACN, 2-80 mg/Kg pimonidazole (Hypoxyprobe), 3-80 mg/Kg ACN:pimonidazole in a 1:1 ratio and 4-0.9% saline control. Mice were sacrificed 2 hours post-injection, tumors removed and frozen in OCT. Seven micron serial sections were taken of each tumor, dried and stored at −80° C.
Tissue sections were air dried for 25 minutes, fixed for 5 minutes in −20° C. acetone; air dried 25 minutes and blocked in PBS with 1% BSA for 20 minutes. Sections were incubated with primary antibodies for small vessel endothelium [1:100 rabbit anti-CD34 (abcam)] or hypoxia [1:100 rabbit anti-pimonidazole Hypoxyprobe)] for 2 hours at room temperature, followed by 3 five minute washes in 1×PBS. […]

FaDu cells [3] = assay: In vitro inverse oxygen dependent entrapment of ACN, click chemistry fluorescence; format: cell-based, human
Experimental: The Click-IT reaction cocktail (Molecular Probes) was made up according to the manufacturer's directions using a 1:5000 dilution of the 2 mg/ml Alexafluor 555 or 594 conjugated alkyne stock (Molecular Probes). The reaction cocktail was used within 15 minutes of preparation. All reactions were done at room temperature in the dark.
Subconfluent FaDu cells were trypsinized, and approximately 3-5×10^5 cells were seeded in 35 mm tissue culture plates containing sterilized […] glass coverslips. Cells were allowed to grow overnight, and treated with different concentrations of ACN (1 μM, 10 μM and 100 μM) under normoxia (20% Oxygen), hypoxia (1% Oxygen) or anoxia (0% Oxygen) for 6 hours. Hypoxia and anoxia were achieved using an in house de-gassing system. Post-treatment, all steps were carried out at room temperature. Cells were washed three to five times with 1×PBS, fixed in 2% paraformaldehyde (PFA) for 20 minutes, and washed again three times with 1×PBS. The fixed cells were then blocked and permeabilized with 1% BSA in 1×PBS containing 0.1% Triton-100 for 20 minutes, followed by incubation with click cocktail containing Alexafluor 594 conjugated alkyne for 30 minutes. Subsequently cells were washed and stained with Hoechst 33342 (1:10000 dilution in PBS, Life Technologies) for 5 minutes before mounting them on glass slides (Fluoroshield Mounting Medium, abcam). The prepared slides were kept at 4° C. until imaged. Images were obtained by with a Plan-Apochromat 40X/1.3 Oil DIC lens on a Zeiss 710 confocal microscope using Zen 2011 software.

FaDu cells [4] = assay: Hypoxic cytotoxicity of ACN, colony formation assay; format: cell-based, human; details: concentrations up to 100 μM, 24 h, normoxia (20% O2) or hypoxia (1% O2 and <0.1% O2)
Experimental: (§1) Human head and neck squamous cell carcinoma cell line, FaDu, was purchased from American Type Culture Collection (ATCC HTB-43). FaDu cells were cultured in Dulbecco's Modified Eagle's medium/Nutrient Mixture F-12 media supplemented with 10% Fetal bovine serum, 2 mM L-glutamine and 10% Penicillin Streptomycin. Cells were cultured in a humidified incubator at 37° C. with 5% CO2.
(§2) Hypoxic cytotoxicity of ACN was evaluated using colony formation assay. FaDu cells were seeded on 60 mm glass petri dishes (in triplicates) at a density of 300 cells per plate. Cells were allowed to attach for 24 hours, followed by treatment with 1 μM, 10 μM and 100 μM of freshly dissolved ACN for 24 hours under normoxia (20% O2) or hypoxia (1% O2 and <0.1% O2); 100 μM DMSO was used as vehicle control. Cells were allowed to grow and form colonies for 14 days. Colonies were stained with crystal violet, counted and plotted as percentage of vehicle conditions; error bars show standard error of the means. […] Colonies were stained with crystal violet, counted and plotted as percentage of vehicle (DMSO) controls; error bars represent standard error of the means. […] 1 hr following IR, cells were trypsinized, counted, and seeded on 24 well plates in triplicates at a density of 50,000 cells per well. Cells were trypsinized 1, 3, 5 and 7 days after re-plating, and counted with a Z2 coulter particle counter.

FaDu cells [5] = assay: Radiosensitization potential of ACN, colony formation assay with 5 Gy IR; format: cell-based, human; details: 100 μM ACN and 5 Gy IR, normoxia or hypoxia (<0.1% O2)
Experimental: as §1, §2

FaDu cells [6] = assay: Cell proliferation assay (cell counts); format: cell-based, human; details: 100 μM, alone or in combination with 5 Gy IR
Experimental: as §1, §2

## [N-]=[N+]=NCC1OC(n2ccnc2[N+](=O)[O-])[C@H](O)[C@H]1O (some centres unmarked) [ACN, 5’-azido-arabinofuranosyl-2-nitroimidazole]
FaDu cells [1]; 100 μM of each compound, 6 h
  staining detected by oxygen condition: detected in oxygen deprived cells
FaDu cells [1]; hypoxic <0.1% O2 cells, 100 μM
  sub-cellular distribution of signal: higher nuclear signal
FaDu cells [2]; 6 h anoxia then re-oxygenation
  time after re-oxygenation up to which signal for ACN-protein adducts could be detected: up to 6 hours
FaDu cells [2]; 18 hours re-oxygenation
  signal after 18 hours re-oxygenation: very faint signal
FaDu xenograft tumors
  localization in tumor sections: co-localizes in hypoxic regions of FaDu xenograft tumors
FaDu cells [3]; 1, 10, 100 μM, 6 h, normoxia, hypoxia, <0.1% O2
  entrapment in cells versus oxygen level (click signal): entrapped in FaDu cells in an inverse oxygen dependent manner
FaDu cells [3]; 1-100 μM, hypoxic cells
  dose dependence of entrapment in hypoxic cells: dose dependent manner
FaDu cells [3]; normoxia (20% Oxygen)
  entrapment in well oxygenated or normoxic cells: minimal to almost no entrapment
FaDu cells [4]
  hypoxia-selective cytotoxicity (colony formation): did not show any hypoxia-selective cytotoxicity
FaDu cells [5]
  hypoxic radiosensitization (colony formation): No hypoxic radiosensitization was observed
FaDu cells [6]
  cell counts compared to vehicle control: did not generate significant difference in cell counts
